From ChEMBL document CHEMBL3091296, “Design, synthesis and biological evaluation of 3-benzyloxy-linked pyrimidinylphenylamine derivatives as potent HIV-1 NNRTIs” (Bioorg Med Chem, 2013)

Tests used:
[1] = Selectivity index, ratio of CC50 for human MT4 cells to EC50 for wild-type HIV1 3B infected in MT4 cells; format: toxicity, cell-based; details: read-out: Ratio CC50/EC50
[2] = Cytotoxicity against mock-infected human MT4 cells after 5 days by MTT assay; format: cell-based
[3] = system: Human immunodeficiency virus 2; assay: Antiviral activity against HIV2 ROD infected in MT4 cells assessed as reduction in virus-induced cytopathic effect after 5 days by MTT assay; format: functional, organism-based; details: Human immunodeficiency virus 2, ISOLATE ROD, MT4, 120 h
[4] = system: Human immunodeficiency virus 1; assay: Antiviral activity against HIV1 harboring reverse transcriptase K103N/Y181C mutant infected in MT4 cells assessed as reduction in virus-induced cytopathic effect after 5 days by MTT assay; format: functional, organism-based; details: Human immunodeficiency virus 1, MT4, 120 h
[5] = system: Human immunodeficiency virus 1; assay: Antiviral activity against wild-type HIV1 3B infected in MT4 cells assessed as reduction in virus-induced cytopathic effect after 5 days by MTT assay; format: functional, organism-based; details: Human immunodeficiency virus 1, 3B, MT4, 120 h
[6] = target: Human immunodeficiency virus type 1 reverse transcriptase (Human immunodeficiency virus 1, UniProt Q72547); assay: Inhibition of HIV-1 reverse transcriptase assessed as inhibition of biotin dUTP incorporation by primer extension assay

SMILES | selectivity ratio [1] | CC50 at 120 h [2] | EC50 [3] | EC50 [4] | EC50 [5] | IC50 [6]
COc1ccnc(Nc2ccc(Cl)c(Oc3ccccc3)c2)n1 | 15 |  |  |  |  | 
COc1ccnc(Nc2ccc(Cl)c(OCc3ccc(C#N)cc3)c2)n1 | 17 | 283 µM | > 283 µM | > 283 µM | 17 µM | 
COc1ccnc(Nc2ccc(Cl)c(OCc3ccccc3C)c2)n1 | 106 | 8.8 µM | > 8.8 µM | > 8.8 µM | 0.082 µM | 
COc1ccc(COc2cc(Nc3nccc(OC)n3)ccc2Cl)cc1 | ≥ 37 | ≥ 290 µM | > 290 µM | > 290 µM | 7.8 µM | 
COc1ccnc(Nc2ccc(Cl)c(OCc3ccc([N+](=O)[O-])cc3)c2)n1 | > 1 | > 323 µM |  |  | > 323 µM | 
COC(=O)c1ccc(COc2cc(Nc3nccc(OC)n3)ccc2Cl)cc1 | < 1 | ≥ 106 µM | > 1.6 µM |  | > 106 µM | 
COc1ccnc(Nc2ccc(Cl)c(OCc3ccc(C(N)=O)cc3)c2)n1 | > 9 | > 325 µM | > 325 µM | > 325 µM | 35 µM | 
COc1ccnc(Nc2ccc(Cl)c(OCc3cccc(Cl)c3)c2)n1 | > 1460 | > 332 µM | > 332 µM | > 332 µM | 0.23 µM | 
COc1ccnc(Nc2ccc(Cl)c(OCc3ccc(Cl)cc3)c2)n1 | 12 | 95 µM | > 95 µM | > 95 µM | 7.7 µM | 
COc1ccnc(Nc2ccc(Cl)c(OCc3ccc(Cl)cc3Cl)c2)n1 | < 1 | 77 µM | > 77 µM |  | > 77 µM | 
COc1ccnc(Nc2ccc(Cl)c(OCc3ccc(Cl)c(Cl)c3)c2)n1 | > 1 | > 304 µM | > 304 µM |  | > 304 µM | 
COc1ccnc(Nc2ccc(Cl)c(OCc3ccccc3F)c2)n1 | 777 | 42 µM | > 42 µM | > 42 µM | 0.05 µM | 
COc1ccnc(Nc2ccc(Cl)c(OCc3cccc(F)c3)c2)n1 | > 4870 | > 347 µM | > 347 µM | > 347 µM | 0.07 µM | 1.5 µM
COc1ccnc(Nc2ccc(Cl)c(OCc3ccc(F)cc3)c2)n1 | 309 | 218 µM | > 218 µM | > 218 µM | 0.71 µM | 
COc1ccnc(Nc2ccc(Cl)c(OCc3ccccc3Br)c2)n1 | 158 | 52 µM | > 52 µM | > 52 µM | 0.33 µM | 
COc1ccnc(Nc2ccc(Cl)c(OCc3cccc(Br)c3)c2)n1 | > 393 | > 297 µM | > 297 µM | > 297 µM | 0.76 µM | 
COc1ccnc(Nc2ccc(Cl)c(OCc3ccc(Br)cc3)c2)n1 | 10 | 224 µM | > 224 µM | > 224 µM | 23 µM | 
COc1ccnc(Nc2ccc(Cl)c(OCc3ccccc3C#N)c2)n1 | 1290 | 199 µM | > 199 µM | > 199 µM | 0.15 µM | 
COc1ccnc(Nc2ccc(Cl)c(OCc3ccccc3Cl)c2)n1 | 143 | 33 µM | > 33 µM | > 33 µM | 0.23 µM | 
COc1ccnc(Nc2ccc(Cl)c(OCc3ccccc3)c2)n1 | 833 | 62 µM | > 62 µM | > 62 µM | 0.075 µM | 
O=C1Nc2ccc(Cl)cc2[C@@](C#CC2CC2)(C(F)(F)F)O1 [EFAVIRENZ] | > 693 |  |  | 0.52 µM | 0.009 µM | 
Cc1ccnc2c1NC(=O)c1cccnc1N2C1CC1 [NEVIRAPINE] |  | > 15 µM |  | > 5 µM | 0.113 µM | 
